# pEC50: −log10 of the molar value. Read-outs that look alike come from different tables or passages of the source.
# What was measured:
# HepG2 cells = test: Cell uptake and metabolism of EIDD-2801 in HepG2 cells; conditions: intracellular analyte; HepG2 cells incubated with 20 μM EIDD-2801, 1-24 hours
# SARS [1] = test: organism not typed; assay type: cell-based; conditions: Vero C1008, SARS; Vero E6
# CEM cells = test: Cell uptake and metabolism of EIDD-2801 in CEM cells; conditions: intracellular analyte; CEM cells incubated with EIDD-2801 (40 μM solution prepared), 1-24 hours
# Huh-7 cells = test: Cell uptake and metabolism of EIDD-2801 in Huh-7 cells; conditions: intracellular analyte; Huh-7 cells incubated with 20 μM EIDD-2801, 1-24 hours
# SARS-CoV2 = test: microbe, parasite or virus in culture; assay type: cell-based; conditions: Severe acute respiratory syndrome coronavirus 2, Vero
# Vero cells = test: Cell uptake and metabolism of EIDD-2801 in Vero cells; conditions: intracellular analyte; Vero cells incubated with 20 μM EIDD-2801, 1-24 hours
# HCoV = test: organism not typed; assay type: cell-based; conditions: Vero C1008
# [2] = cynomolgus monkey, in vivo, po
# [3] = human, in vivo
# clinical = conditions: human, in vivo; for AUC(0-inf): AUCinf
# SARS [4] = test: organism not typed; assay type: cell-based; conditions: Vero C1008
structure (smiles),measurement,setting,value
"O=c1nc(NO)ccn1C1OC(CO)C(O)C1O (stereo not shown) [EIDD-1931, 1-(3,4-dihydroxy-5-(hydroxymethyl)tetrahydrofuran-2-yl)-4-(hydroxyamino)pyrimidin-2-one]",AUC0−>t,HepG2 cells,249.8 pmol · h/M cells
same,Cmax,HepG2 cells,13.4 pmol/M Cells
same,pEC50,SARS [1],> 6.10
same,AUC0−>t,CEM cells,5.8 pmol · h/M cells
same,Cmax,CEM cells,0.3 pmol/M Cells
same,AUC0−>t,Huh-7 cells,449.2 pmol · h/M cells
same,Cmax,Huh-7 cells,29.0 pmol/M Cells
same,pEC50,SARS-CoV2,6.52
same,AUC0−>t,Vero cells,228.6 pmol · h/M cells
same,Cmax,Vero cells,13.5 pmol/M Cells
same,pEC50,HCoV,> 6.40
same,bioavailability,[2],low bioavailability
same,"Slope (90% Confidence Interval) of power model, AUCinf",[3],"1.07 (1.02, 1.13)"
same,"Slope (90% Confidence Interval) of power model, AUClast",[3],"1.09 (1.03, 1.15)"
same,"Slope (90% Confidence Interval) of power model, Cmax",[3],"1.01 (0.927, 1.08)"
same,"Slope of power model, AUCinf",[3],1.10
same,"Slope of power model, AUClast",[3],1.11
same,"Slope of power model, AUCt",[3],1.08
same,"delay of median tmax, capsule vs solution formulation",[3],up to 0.75 hours
same,dose excreted in urine as EIDD-1931,[3],0.854-3.61%
same,geometric mean accumulation ratio based on AUCt,[3],0.938-1.16
same,geometric mean accumulation ratio based on Cmax,[3],0.843-1.10
same,"geometric mean ratio of AUCinf, capsule (multiple-dose cohorts Day 1) vs solution (single-dose cohorts)",[3],0.91-1.09
same,"geometric mean ratio of Cmax, capsule vs solution formulation",[3],0.76-1.00
same,RAcmax (accumulation ratio),[3]; 50 mg,0.843
same,RAcmax (accumulation ratio),[3]; 100 mg,1.10
same,FEAUC/inf (ratio of AUCinf fed:fasted),[3]; 200 mg,0.955
same,FECmax (ratio of Cmax fed:fasted),[3]; 200 mg,0.644
same,RAcmax (accumulation ratio),[3]; 200 mg,0.969
same,mean Cmax lower in the fed state compared to the fasted state,[3]; 200 mg,approximately 36%
same,RAcmax (accumulation ratio),[3]; 300 mg,0.861
same,RAcmax (accumulation ratio),[3]; 400 mg,0.962
same,RAcmax (accumulation ratio),[3]; 600 mg,1.04
same,RAcmax (accumulation ratio),[3]; 800 mg,1.09
same,t1/2,[3]; 800 mg,7.08¶ h
same,AUC(0-inf),clinical; 50 mg,461 ng·h/mL
same,AUC(0-t),"clinical; 50 mg, AUClast",444 ng·h/mL
same,AUC(0-t),"clinical; 50 mg, AUCt",461 ng·h/mL
same,Cmax,clinical; 50 mg,223 ng/mL
same,half-life,"clinical; 50 mg, t1/2",0.937 h
same,Tmax,"clinical; 50 mg, tmax",1 h
same,AUC(0-inf),clinical; 100 mg,855 ng·h/mL
same,AUC(0-t),"clinical; 100 mg, AUClast",835 ng·h/mL
same,AUC(0-t),"clinical; 100 mg, AUCt",854 ng·h/mL
same,Cmax,clinical; 100 mg,395 ng/mL
same,half-life,"clinical; 100 mg, t1/2",0.918 h
same,Tmax,"clinical; 100 mg, tmax",1.25 h
same,AUC(0-inf),clinical; 200 mg,1660 ng·h/mL
same,AUC(0-t),"clinical; 200 mg, AUClast",1720 ng·h/mL
same,AUC(0-t),"clinical; 200 mg, AUCt",1730 ng·h/mL
same,Cmax,clinical; 200 mg,742 ng/mL
same,half-life,"clinical; 200 mg, t1/2",1.09 h
same,Tmax,"clinical; 200 mg, tmax",1.5 h
same,AUC(0-inf),clinical; 300 mg,3090 ng·h/mL
same,AUC(0-t),"clinical; 300 mg, AUClast",2980 ng·h/mL
same,AUC(0-t),"clinical; 300 mg, AUCt",2960 ng·h/mL
same,Cmax,clinical; 300 mg,1100 ng/mL
same,half-life,"clinical; 300 mg, t1/2",1.71 h
same,Tmax,"clinical; 300 mg, tmax",1.5 h
same,AUC(0-inf),clinical; 400 mg,3800 ng·h/mL
same,AUC(0-t),"clinical; 400 mg, AUClast",3730 ng·h/mL
same,AUC(0-t),"clinical; 400 mg, AUCt",3710 ng·h/mL
same,Cmax,clinical; 400 mg,1470 ng/mL
same,half-life,"clinical; 400 mg, t1/2",1.2 h
same,Tmax,"clinical; 400 mg, tmax",1.5 h
same,AUC(0-inf),clinical; 600 mg,6680 ng·h/mL
same,AUC(0-t),"clinical; 600 mg, AUClast",7250 ng·h/mL
same,AUC(0-t),"clinical; 600 mg, AUCt",7110 ng·h/mL
same,Cmax,clinical; 600 mg,2240 ng/mL
same,half-life,"clinical; 600 mg, t1/2",1.16 h
same,Tmax,"clinical; 600 mg, tmax",1.75 h
same,AUC(0-inf),clinical; 800 mg,8200 ng·h/mL
same,AUC(0-t),"clinical; 800 mg, AUClast",8450 ng·h/mL
same,AUC(0-t),"clinical; 800 mg, AUCt",8330 ng·h/mL
same,Cmax,clinical; 800 mg,2970 ng/mL
same,Tmax,"clinical; 800 mg, tmax",1.5 h
same,half-life,clinical; mean t1/2,0.918 to 1.18 h
same,Tmax,clinical; median tmax,1 to 1.75 h
same,AUC(0-inf),"clinical; po, 50 mg",432 ng·h/mL
same,AUC(0-t),"clinical; po, 50 mg, AUClast",415 ng·h/mL
same,Cmax,"clinical; po, 50 mg",223 ng/mL
same,half-life,"clinical; po, 50 mg, t1/2",0.945 h
same,Tmax,"clinical; po, 50 mg, tmax (median)",1 h
same,AUC(0-inf),"clinical; po, 100 mg",932 ng·h/mL
same,AUC(0-t),"clinical; po, 100 mg, AUClast",917 ng·h/mL
same,Cmax,"clinical; po, 100 mg",454 ng/mL
same,half-life,"clinical; po, 100 mg, t1/2",0.907 h
same,Tmax,"clinical; po, 100 mg, tmax (median)",1 h
same,AUC(0-inf),"clinical; po, 200 mg",1830 ng·h/mL
same,AUC(0-t),"clinical; po, 200 mg, AUClast",1810 ng·h/mL
same,Cmax,"clinical; po, 200 mg",926 ng/mL
same,half-life,"clinical; po, 200 mg, t1/2",1.02 h
same,Tmax,"clinical; po, 200 mg, tmax (median)",1 h
same,AUC(0-inf),"clinical; po, 400 mg",4010 ng·h/mL
same,AUC(0-t),"clinical; po, 400 mg, AUClast",4000 ng·h/mL
same,Cmax,"clinical; po, 400 mg",1850 ng/mL
same,half-life,"clinical; po, 400 mg, t1/2",1.03 h
same,Tmax,"clinical; po, 400 mg, tmax (median)",1 h
same,AUC(0-inf),"clinical; po, 600 mg",6130 ng·h/mL
same,AUC(0-t),"clinical; po, 600 mg, AUClast",6120 ng·h/mL
same,Cmax,"clinical; po, 600 mg",2720 ng/mL
same,half-life,"clinical; po, 600 mg, t1/2",1.06 h
same,Tmax,"clinical; po, 600 mg, tmax (median)",1 h
same,AUC(0-inf),"clinical; po, 800 mg",8740 ng·h/mL
same,AUC(0-t),"clinical; po, 800 mg, AUClast",8720 ng·h/mL
same,Cmax,"clinical; po, 800 mg",3640 ng/mL
same,half-life,"clinical; po, 800 mg, t1/2",1.29 h
same,Tmax,"clinical; po, 800 mg, tmax (median)",1 h
same,AUC(0-inf),"clinical; po, 1200 mg",13800 ng·h/mL
same,AUC(0-t),"clinical; po, 1200 mg, AUClast",13800 ng·h/mL
same,Cmax,"clinical; po, 1200 mg",4500 ng/mL
same,half-life,"clinical; po, 1200 mg, t1/2",1.81 h
same,Tmax,"clinical; po, 1200 mg, tmax (median)",1.75 h
same,AUC(0-inf),"clinical; po, 1600 mg",20700 ng·h/mL
same,AUC(0-t),"clinical; po, 1600 mg, AUClast",20700 ng·h/mL
same,Cmax,"clinical; po, 1600 mg",6350 ng/mL
same,half-life,"clinical; po, 1600 mg, t1/2",4.59 h
same,Tmax,"clinical; po, 1600 mg, tmax (median)",1.5 h
same,half-life,"clinical; po, geometric mean terminal elimination half-lives (t1/2)",0.91 to 1.29 h
same,Tmax,"clinical; po, median tmax",1 h
same,EC90,SARS [4],< 800 nM

# Source: US20250064844A1 (Emory University, priority 2020, published 2025)
